Tested on: patients with advanced solid tumors (SCLC, CRC, mCRPC, NUT carcinoma)
Assay: phase Ib expansion: DLTs, adverse events, exposure
[1] = phase Ib, NUT carcinoma total n = 42

Description: The primary endpoint for the phase Ib expansion was the number of patients who experienced DLTs during the study treatment period.
For fatigue at baseline, there had to be an increase of two or more grades.

## CNc1nc(-c2nc3ccc(N4CCN(C)CC4)cc3n2Cc2ccccc2)cn2c(C)nnc12 [BI 894999]
[1]
  Vomiting, treatment-related AE, any grade: 0 n (%)
  Vomiting, treatment-related AE, grade ≥3: 0 n (%)
  Weight decrease, treatment-related AE, any grade: 0 n (%)
  Weight decrease, treatment-related AE, grade ≥3: 0 n (%)
Phase Ib, SCLC n = 12
  ALT increase, treatment-related AE, any grade: 1 (8.3) n (%)
  ALT increase, treatment-related AE, grade ≥3: 0 n (%)
  Anemia, treatment-related AE, any grade: 0 n (%)
  Anemia, treatment-related AE, grade ≥3: 0 n (%)
  Decreased appetite, treatment-related AE, any grade: 2 (16.7) n (%)
  Decreased appetite, treatment-related AE, grade ≥3: 1 (8.3) n (%)
  Decreased platelet count, treatment-related AE, any grade: 1 (8.3) n (%)
  Decreased platelet count, treatment-related AE, grade ≥3: 0 n (%)
  Diarrhea, treatment-related AE, any grade: 3 (25.0) n (%)
  Diarrhea, treatment-related AE, grade ≥3: 0 n (%)
  Dysgeusia, treatment-related AE, any grade: 3 (25.0) n (%)
  Dysgeusia, treatment-related AE, grade ≥3: 0 n (%)
  Epistaxis, treatment-related AE, any grade: 0 n (%)
  Epistaxis, treatment-related AE, grade ≥3: 0 n (%)
  Fatigue, treatment-related AE, any grade: 4 (33.3) n (%)
  Fatigue, treatment-related AE, grade ≥3: 1 (8.3) n (%)
  Nausea, treatment-related AE, any grade: 1 (8.3) n (%)
  Nausea, treatment-related AE, grade ≥3: 0 n (%)
  Number of patients with treatment-related AEs: 11 (91.7) n (%)
  Thrombocytopenia, treatment-related AE, any grade: 5 (41.7) n (%)
  Thrombocytopenia, treatment-related AE, grade ≥3: 3 (25.0) n (%)
  Vomiting, treatment-related AE, any grade: 2 (16.7) n (%)
  Vomiting, treatment-related AE, grade ≥3: 0 n (%)
  Weight decrease, treatment-related AE, any grade: 1 (8.3) n (%)
  Weight decrease, treatment-related AE, grade ≥3: 0 n (%)
Phase Ib, all 79 patients
  anemia, grade ≥3 treatment-related AE: 15.2%
  anemia, treatment-related AE: 22.8%
  decreased appetite, treatment-related AE: 15.2%
  decreased platelet count, grade ≥3 treatment-related AE: 11.4%
  decreased platelet count, treatment-related AE: 25.3%
  diarrhea, treatment-related AE: 29.1%
  dysgeusia, treatment-related AE: 19.0%
  fatigue, grade ≥3 treatment-related AE: 6.3%
  fatigue, treatment-related AE: 27.8%
  nausea, treatment-related AE: 12.7%
  thrombocytopenia, grade ≥3 treatment-related AE: 20.3%
  thrombocytopenia, treatment-related AE: 31.6%
  vomiting, treatment-related AE: 12.7%
Phase Ib, mCRPC n = 11
  ALT increase, treatment-related AE, any grade: 0 n (%)
  ALT increase, treatment-related AE, grade ≥3: 0 n (%)
  Anemia, treatment-related AE, any grade: 4 (36.4) n (%)
  Anemia, treatment-related AE, grade ≥3: 4 (36.4) n (%)
  Decreased appetite, treatment-related AE, any grade: 4 (36.4) n (%)
  Decreased appetite, treatment-related AE, grade ≥3: 1 (9.1) n (%)
  Decreased platelet count, treatment-related AE, any grade: 3 (27.3) n (%)
  Decreased platelet count, treatment-related AE, grade ≥3: 1 (9.1) n (%)
  Diarrhea, treatment-related AE, any grade: 6 (54.5) n (%)
  Diarrhea, treatment-related AE, grade ≥3: 0 n (%)
  Dysgeusia, treatment-related AE, any grade: 4 (36.4) n (%)
  Dysgeusia, treatment-related AE, grade ≥3: 0 n (%)
  Epistaxis, treatment-related AE, any grade: 2 (18.2) n (%)
  Epistaxis, treatment-related AE, grade ≥3: 0 n (%)
  Fatigue, treatment-related AE, any grade: 4 (36.4) n (%)
  Fatigue, treatment-related AE, grade ≥3: 0 n (%)
  Nausea, treatment-related AE, any grade: 4 (36.4) n (%)
  Nausea, treatment-related AE, grade ≥3: 1 (9.1) n (%)
  Number of patients with treatment-related AEs: 11 (100.0) n (%)
  Thrombocytopenia, treatment-related AE, any grade: 5 (45.5) n (%)
  Thrombocytopenia, treatment-related AE, grade ≥3: 4 (36.4) n (%)
  Vomiting, treatment-related AE, any grade: 5 (45.5) n (%)
  Vomiting, treatment-related AE, grade ≥3: 0 n (%)
  Weight decrease, treatment-related AE, any grade: 2 (18.2) n (%)
  Weight decrease, treatment-related AE, grade ≥3: 0 n (%)
Phase Ib, on treatment
  DLT grade 3 decreased appetite: 2.5%
  DLT grade 3 fatigue: 3.8%
  DLT grade 3 increased troponin T: 2.5%
  DLT grade 4 decreased platelet count: 5.1%
  DLT grade 4 thrombocytopenia: 10.1%
Phase Ib, schedule C 6.0/3.0 mg, on-treatment period
  total patients with DLTs: Phase Ib expansion: total patients with DLTs on BI 894999 (schedule C; 6.0/3.0 mg), n = 3
Phase Ib, COVID-19, pneumonia, sepsis, delirium, seizure, dyspnea, pulmonary hemorrhage, acute kidney injury
  AEs leading to death, each: 1.3%
Phase Ib, tumor hemorrhage, seizure, dyspnea, laryngeal inflammation, nausea, stomatitis, bladder dilation, urinary retention, increased ALT, increased AST, decreased platelet count, increased alkaline phosphatase
  other AEs leading to dose discontinuation, each: 1.3%
Solid tumors phase Ib n = 79
  AEs leading to death: 7 (8.9) n (%)
  AEs leading to discontinuation of trial drug: 11 (13.9) n (%)
  AEs leading to dose reduction: 13 (16.5) n (%)
  Any AE: 79 (100) n (%)
  DLT in on-treatment period: 17 (21.5) n (%)
  Treatment-related AEs: 66 (83.5) n (%)
  Treatment-related serious AEs: 17 (21.5) n (%)

— paper PMC12005229, “Final results from the phase Ia/Ib study of the novel bromodomain and extra-terminal domain inhibitor, BI 894999, in patients with advanced solid tumors or diffuse large B-cell lymphoma” (ESMO Open, 2025)
